Consider one substance from patent US10662124B2, “Fertilizer composition containing oxidized glutathione and fertilizer element for foliar application” (Kaneka Corporation, priority 2015, dated 2020).

The test system of test [1] is Lettuce seedlings (Green leaf lettuce, Sakata Seed Corporation). Nature of the test: Example 2: effects of application on leaf surface, lettuce seedling-raising test. It is filed as in vivo. Particulars: for Weight (fresh weight, average, of the terrestrial parts): 2 weeks, n=3; for Growth rate (fresh weight of terrestrial parts relative to Control group): Control group = 100. Here is the method: (§1) Lettuce seedlings (Green leaf lettuce, Sakata Seed Corporation) were raised under the conditions described below.
(§2) Place: Inside a plant incubator
(§3) Soil: Black soil (40 ml/pot)
(§4) Light: 115 μmol m^−2 s^−1 (10,000 lux) (light period: 16 hours; dark period: 8 hours)
Number of tested plants (n): 3
(§5) Water supply: During the seedling-raising test, water was adequately supplied so as to prevent the soil in the pot from being dehydrated (about 20 ml/week).
Test groups: Four test groups: i.e., Control group, Comparative group 1, Comparative group 2, and Invention group, were provided as shown in Table 3 below.
(§6) Control group was tested through application of fertilizer elements (nitrogen, phosphorus, and potassium) only to soil without the application of GSSG.
(§7) In the case of Control group, soil was prepared to comprise nitrogen, phosphorus, and potassium in an amount of 40 mg each (120 mg in total per pot) in terms of N, P2O5, and K2O, respectively, at the time of sowing. Specifically, 40 ml of soil, 156 mg of ammonium sulfate, 66 mg of monobasic ammonium phosphate, and 80 mg of potassium sulfate were weighed and introduced into a container, these components were mixed to prepare a homogeneous composition, and the resultant was introduced into a pot. Ammonium sulfate used in the experiment contained 21% of nitrogen (in terms of N), and monobasic ammonium phosphate contained 11% of nitrogen (in terms of N) and 61% of phosphorus (in terms of P2O5), and potassium sulfate contained 50% of potassium (in terms of K2O) (based on the indication of each product).
(§8) Lettuce seeds were sowed in soil in the pot and the seedling-raising test was then initiated.
Comparative group 1 was tested through application of GSSG and a fertilizer elements (nitrogen, phosphorus, and potassium) only to soil.
The method for application of fertilizer elements to soil and the amount of application are as described above with reference to Control group.
GSSG was applied to soil with the addition of an aqueous solution of GSSG to soil. At the outset, an aqueous solution of GSSG (in terms of free GSSG, the same applies hereinbelow) dissolved at 300 ppm in water was prepared. Subsequently, the aqueous solution of GSSG was applied in an amount of 4 ml each (12 ml in total) three separate times at intervals of 3 days from 6 days after seedling raising was initiated. Thus, 3.6 mg of GSSG (in terms of free GSSG) was applied during the test period per pot. […]
In Invention group, soil was prepared to contain the fertilizer elements (i.e., 36 mg each of nitrogen, phosphorus, and potassium in terms of N, P2O5, and K2O, respectively, 108 mg in total per pot) at the time of sowing. Specifically, 40 ml of soil and, as fertilizer elements, 140.4 mg of ammonium sulfate, 59.4 mg of ammonium phosphate, and 72 mg of potassium sulfate, were weighed and introduced into a container, these components were mixed to prepare a homogeneous composition, and the resultant was then introduced into a pot.
GSSG was spray-applied to the leaf surface as described below. The finely-powdered water-soluble preparation (1) of the formulation A as described in Example 1 (33.8 mg) was dissolved in 12 ml of water to prepare an aqueous solution containing GSSG and fertilizer elements. […]

For test [2] the test system is unchanged. Put plainly: Example 6: spray-application to leaf surface with different amounts of fertilizer elements, lettuce seedling-raising test. The class given is in vivo. Here is the method: as §1, §2, §3, §4
Number of tested plants (n): 4
as §5
Test groups: […] test groups: i.e., Control group, Comparative group 7, Formulation group 1 (15 parts of the fertilizer), Formulation group 2 (30 parts of the fertilizer), Formulation group 3 (100 parts of the fertilizer), Formulation group 4 (150 parts of the fertilizer), Formulation group 5 (200 parts of the fertilizer), and Formulation group 6 (400 parts of the fertilizer), were provided as shown in Table 11 below.
as §6
as §7, with “contain” for “comprise”, “elements” for “components”, “N),” for “N), and”
as §8
Comparative group 7 was tested through application of GSSG to the leaf surface and fertilizer elements (nitrogen, phosphorus, and potassium) to soil. […]

As for Oxidized glutathione [GSSG], the “Plant growth promotion versus Control group” value in test [1] (Comparative group 1 (GSSG to soil) compared with Control group) and in test [2] (Comparative group 7 compared with Control group) was “plant growth is promoted” in each case. The “Weight (fresh weight, average, of the terrestrial parts)” value in test [1] (GSSG applied to soil, 3.6 mg per pot in three applications, fertilizer elements to soil) turned out to be 90 mg; in test [1] (sprayed to the leaf surface three times, 12 ml in total per pot (3.5-3.6 mg GSSG), remaining fertilizer elements to soil), 103 mg; in test [2] (2 weeks, n=4, 3.5 mg GSSG with 0-400 parts of fertilizer per 100 parts GSSG sprayed to leaf surface three times, 12 ml in total per pot, rest of fertilizer to soil), 88 mg. Also, the “Growth rate (fresh weight of terrestrial parts relative to Control group)” value in test [1] (GSSG applied to soil, 3.6 mg per pot, fertilizer elements to soil) is on record as 130%; in test [1] (sprayed to the leaf surface three times, 12 ml in total per pot (3.5-3.6 mg GSSG)), 149%. Further, the “Growth rate (fresh weight of terrestrial part relative to Control group)” value in test [2] (Control group = 100, 3.5 mg GSSG with 0-400 parts of fertilizer per 100 parts GSSG sprayed to leaf surface) was determined as 131%.
